Data as given in patent US6180083A, “Tropane derivatives useable in particular for in vivo detection of dopamine transporters” (CIS bio International, priority 1996, dated 2001).
Read-outs that look alike come from different tables or passages of the source.

Legend:
[1] = molecular target: T1, dopamine transporters (Rattus norvegicus, UniProt P23977); settings: document 11; cited from earlier work
[2] = molecular target: serotonin transporters; settings: document 11, page 320; cited from earlier work
[3] = molecular target: T1, dopamine transporters; experiment: affinity of IPT for dopamine transporters (document 11); format: binding; settings: from document 11 values
Source text: Therefore a specificity Kd(5-HT)/Kd(DA) of approximately 5 is obtained.
By way of comparison, the affinity of compound IPT for dopamine transporters described in document 11 corresponds to: […]

[4] = molecular target: dopamine transporter; experiment: in vitro competition with [^3 H]-GBR 12935 on brain membrane preparations; format: binding; settings: for Ki: read-out: Affinity: Ki (nM) Dopamine (DA); for Selectivity 5-HT/DA, Ki(5-HT):Ki(DA): [^3 H]paroxetine Ki over [^3 H]GBR Ki
Description: (§1) In this example, in vitro studies are conducted on brain membrane preparations.
(§2) These studies are competition studies between [^3 H]-GBR 12935 (dopamine transporter), [^3 H]-paroxetine (serotonin transporter), [^3 H]-nisoxetine (noradrenaline transporter) and the iodinated derivative of example 1 (PE21).
(§3) The inhibition constants Ki (nM) obtained with the compound of the invention PE21 in competition with the different ligands are given in table 4.
(§4) Med., 1996, 37, pages 1197-1202 for tests of the same type conducted with β-CIT and iodoaltropane described in WO-A-95/11901.

[5] = molecular target: dopamine transporter; settings: [^3 H]Win35428; document 10; read-out: Affinity: Ki (nM) Dopamine (DA); cited from earlier work
[6] = system: dopamine transporter system; settings: prior art compound; source not stated; cited from earlier work
[7] = molecular target: serotonin transporter (Macaca fascicularis, UniProt A7KAX8); settings: read-out: Affinity: Ki (nM) Serotonin 5-HT; [^3 H]citalopram; document 10; cited from earlier work
[8] = molecular target: T2, serotonin transporter (Rattus norvegicus, UniProt P31652); experiment: biochemical; format: binding
T2 construct: in vitro studies are conducted on brain membrane preparations; from tissue; host or cells: brain membrane preparations
Description: as §1, §4

[9] = molecular target: T3, noradrenaline transporter (Rattus norvegicus, UniProt Q63380); experiment: in vitro competition with [^3 H]-nisoxetine on brain membrane preparations; format: binding
T3 construct: in vitro studies are conducted on brain membrane preparations; from tissue; host or cells: brain membrane preparations
Description: as §1, §2, §3, §4

[10] = system: dopamine transporter; experiment: in vivo brain biodistribution in the rat with preinjection of GBR 12909 (specific inhibitor of the dopamine transporter); set-up: species or system rat (male Wistar); settings: for fixation in the striatum prevented/inhibited by preinjection of GBR 12909: GBR 12909 5 mg/kg i.v. 30 min before, 2 hours after injection
Description: (§5) In this example, in vivo tests in the rat are used to study the affinity and specificity of the compound of example 1, hereinafter called PE21, for the dopamine transporter.
(§6) For this purpose 3 batches of male Wistar rats are used using 6 rats per batch. Batch number 1 is first given an intravenous injection of GBR 12909 (specific inhibitor of the dopamine transporter produced by RBI Bioblock) at a dose of 5 mg/kg, and 30 minutes later an injection of the compound of example 1 is given by intravenous route, at a dose of 8.10^-6 mg/kg.
(§7) Batch number 3, or the reference batch, only receives an intravenous injection of the compound of example 1.
(§8) 2 hours later, the animals are sacrificed and the doses of radioactivity in the cerebellum, striatum and frontal cortex tissues are determined.
(§9) The results obtained are given in FIG. 2 and are expressed as a % of the dose injected per gram of tissue.
(§10) In this figure, the columns in white relate to batch number 3 (reference), the shaded columns relate to batch number 1 which received GBR 12909 and the dotted columns relate to batch number 2 which received paroxetine.
(§11) In this example, the same operating mode as in example 14 is followed to conduct the same in vivo brain biodistribution study in the rat, but using the compound of the prior art β-CIT (3b-4-iodo[^125 I]phenyl)-tropan-2β-carboxylic acid methyl ester) instead of the compound of example 1.

[11] = system: serotonin transporter; experiment: in vivo brain biodistribution in the rat with preinjection of paroxetine (specific inhibitor of the serotonin transporter); set-up: species or system rat (male Wistar); settings: for specificity for the dopamine transporter compared with the serotonin transporter in vivo: rat brain
Description: as §5
Batch number 2 first receives an injection of paroxetine (specific inhibitor of the serotonin transporter made by Beecham laboratories) at a dose of 5 mg/kg, and 30 minutes later an injection of the compound of example 1 is given under the same conditions as for batch number 1.
as §7, §8, §9, §10, §11

[12] = molecular target: T1, dopamine transporters; experiment: in vitro affinity of [^125 I]PE21 for dopamine transporters; format: binding
Description: The affinity of compound [^125 I)PE21 for dopamine transporters was also determined in vitro, and the following value was obtained: […]

[13] = biodistribution study in the rat, time course (cerebellum, striatum, frontal cortex); format: in vivo, rat (male Wistar); settings: for tissue uptake at 0.5 h / tissue uptake at 1 h / tissue uptake at 2 h / tissue uptake at 4 h: rat, iv, 8e-06 mg/kg; for tissue uptake at 0.5 h: 0.5 h post-injection; for tissue uptake at 1 h: 1 h post-injection; for tissue uptake at 2 h: 2 h post-injection; for tissue uptake at 4 h: 4 h post-injection
Description: as §6, §7, §8, §9
In this example, a biodistribution study in the rat is also conducted for the compound of example 1 following the same operating mode as in example 14, but sacrificing the animals at 1/2 hour, 1 hour or 4 hours after injection.
In this table, the results obtained in example 14 are also given.

[14] = system: dopaminergic cells; experiment: rat model of Parkinson's disease (unilateral 6-OHDA lesion of the nigrostriatal pathway), ex vivo autoradiography; format: in vivo, rat (Wistar); settings: 2 hours after 3.7 MBq i.v.
Description: In this example, the compound of example 1 PE21 was tested in the rat using a model of Parkinson's disease obtained with a unilateral lesion of the nigrostriatal pathway. For this purpose Wistar rats were unilaterally perfused in the substantia nigra with 8 μg of 6-OHDA(6-hydroxy dopamine).
Three weeks later, they were given an intravenous 3.7 MBq injection of [^125 I]PE21.
Two hours afterwards, the rats were sacrificed and their brains collected. The latter were frozen and coronal sections 20 μm thick were taken which were exposed on β-max hyperfilm for six weeks.
The striatum/frontal cortex ratios were calculated after analysis of the films. On the lesion side, an average ratio of 0.86±0.10 was observed, while this ratio was 7.20±0.91 on the intact side.

[15] = system: dopamine transporter system; experiment: kinetics study in vivo on the brain distribution in primates (SPECT, […]); set-up: species or system primates (Cynomologus female macaque); settings: words
Description: In this example, a kinetics study in vivo is made on the brain distribution of the compound of example 1 in primates (Cynomologus female macaque, 2 kg, anaesthetized with ketamine, with data acquisition made every 12 minutes on […]).

[16] = molecular target: dopamine transporter; settings: Bonnet and Constantin 1986; cited from earlier work
[17] = molecular target: dopamine transporter; experiment: competition with [^3 H]Win35428 (document 10); format: binding; settings: document 10 data
Source text: as §4

[18] = cerebellum, read-out: Cerebellum
[19] = frontal cortex, read-out: Frontal cortex (% injected dose/g tissue)
[20] = striatum, read-out: Striatum (% injected dose/g tissue)

T1 sequence (P23977 whole entry): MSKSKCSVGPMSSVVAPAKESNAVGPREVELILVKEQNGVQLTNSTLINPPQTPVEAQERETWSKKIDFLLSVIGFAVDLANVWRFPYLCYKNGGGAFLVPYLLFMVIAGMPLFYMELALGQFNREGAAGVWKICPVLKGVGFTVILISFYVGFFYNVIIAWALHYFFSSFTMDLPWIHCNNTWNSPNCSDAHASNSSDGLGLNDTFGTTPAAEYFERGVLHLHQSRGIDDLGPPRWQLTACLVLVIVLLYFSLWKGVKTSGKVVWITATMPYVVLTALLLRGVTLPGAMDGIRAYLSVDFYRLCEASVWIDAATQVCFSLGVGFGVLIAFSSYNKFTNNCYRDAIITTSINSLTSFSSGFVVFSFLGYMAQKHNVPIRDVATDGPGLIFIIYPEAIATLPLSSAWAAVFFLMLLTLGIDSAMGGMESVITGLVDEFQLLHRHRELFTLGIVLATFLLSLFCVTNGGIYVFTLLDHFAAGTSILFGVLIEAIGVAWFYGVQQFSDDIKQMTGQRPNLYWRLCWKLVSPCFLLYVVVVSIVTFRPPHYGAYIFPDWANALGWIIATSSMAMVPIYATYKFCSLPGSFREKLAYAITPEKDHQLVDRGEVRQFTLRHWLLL
serotonin transporter (Macaca fascicularis, UniProt A7KAX8), sequence (A7KAX8 1-630): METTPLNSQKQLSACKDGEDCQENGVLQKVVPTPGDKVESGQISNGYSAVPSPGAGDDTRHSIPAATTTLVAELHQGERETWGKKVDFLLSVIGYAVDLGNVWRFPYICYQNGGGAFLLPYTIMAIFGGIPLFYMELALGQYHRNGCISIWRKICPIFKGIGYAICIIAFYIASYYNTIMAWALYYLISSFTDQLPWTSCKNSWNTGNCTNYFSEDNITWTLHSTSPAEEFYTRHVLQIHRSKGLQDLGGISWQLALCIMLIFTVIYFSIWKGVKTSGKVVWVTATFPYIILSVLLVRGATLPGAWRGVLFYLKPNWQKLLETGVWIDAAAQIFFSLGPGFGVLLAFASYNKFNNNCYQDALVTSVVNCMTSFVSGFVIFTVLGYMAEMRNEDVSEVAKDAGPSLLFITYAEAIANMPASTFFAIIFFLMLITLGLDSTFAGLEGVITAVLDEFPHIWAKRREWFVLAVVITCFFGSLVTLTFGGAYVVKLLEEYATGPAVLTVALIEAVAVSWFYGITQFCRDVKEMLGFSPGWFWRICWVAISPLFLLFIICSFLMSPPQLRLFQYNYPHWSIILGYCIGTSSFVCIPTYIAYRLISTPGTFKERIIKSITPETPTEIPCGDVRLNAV
T3 sequence (Q63380 1-617): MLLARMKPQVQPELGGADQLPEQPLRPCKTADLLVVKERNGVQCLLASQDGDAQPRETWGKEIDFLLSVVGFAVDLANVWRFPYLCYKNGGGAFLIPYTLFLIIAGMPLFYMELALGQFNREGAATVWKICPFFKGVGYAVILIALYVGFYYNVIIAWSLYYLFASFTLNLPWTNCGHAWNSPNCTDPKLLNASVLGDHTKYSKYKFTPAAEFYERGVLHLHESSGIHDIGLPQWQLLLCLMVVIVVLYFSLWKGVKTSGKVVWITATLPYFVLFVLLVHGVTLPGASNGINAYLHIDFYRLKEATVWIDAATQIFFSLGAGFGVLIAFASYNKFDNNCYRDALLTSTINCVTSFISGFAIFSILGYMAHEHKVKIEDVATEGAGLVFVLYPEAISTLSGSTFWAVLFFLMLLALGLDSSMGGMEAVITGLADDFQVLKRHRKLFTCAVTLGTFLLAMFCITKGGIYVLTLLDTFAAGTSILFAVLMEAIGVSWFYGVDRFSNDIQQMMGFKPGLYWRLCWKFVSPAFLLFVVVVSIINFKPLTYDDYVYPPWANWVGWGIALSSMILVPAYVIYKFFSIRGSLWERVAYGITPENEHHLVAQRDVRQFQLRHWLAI
T2 sequence (P31652 whole entry): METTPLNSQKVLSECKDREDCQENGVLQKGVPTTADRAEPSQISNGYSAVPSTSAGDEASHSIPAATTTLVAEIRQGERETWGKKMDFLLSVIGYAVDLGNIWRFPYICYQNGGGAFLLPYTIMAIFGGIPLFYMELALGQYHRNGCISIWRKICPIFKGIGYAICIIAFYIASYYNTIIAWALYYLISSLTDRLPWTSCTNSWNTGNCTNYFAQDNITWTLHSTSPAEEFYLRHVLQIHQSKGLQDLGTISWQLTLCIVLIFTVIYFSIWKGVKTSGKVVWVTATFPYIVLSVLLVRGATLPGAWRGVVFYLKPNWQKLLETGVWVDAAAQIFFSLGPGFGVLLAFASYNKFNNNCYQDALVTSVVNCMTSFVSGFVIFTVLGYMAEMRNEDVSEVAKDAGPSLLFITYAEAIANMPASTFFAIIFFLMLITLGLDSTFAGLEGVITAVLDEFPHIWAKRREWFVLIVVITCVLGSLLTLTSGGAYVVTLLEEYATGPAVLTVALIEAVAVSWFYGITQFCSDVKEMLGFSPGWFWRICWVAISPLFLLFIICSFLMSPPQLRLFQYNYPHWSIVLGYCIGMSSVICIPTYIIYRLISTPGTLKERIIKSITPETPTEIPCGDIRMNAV

## COC(=O)[C@H]1[C@@H](c2ccc(Cl)cc2)C[C@@H]2CC[C@H]1N2CC=CI [IPT]
[1]
  Kd: 0.25 ± 0.02 nM
[2]
  Kd: 1.2 ± 0.02 nM
[3]
  specificity Kd(5-HT)/Kd(DA): approximately 5

## COC(=O)[C@H]1[C@@H](c2ccc(I)cc2)C[C@@H]2CC[C@H]1N2C [β-CIT, 2β-carbomethoxy-3β-(4' iodophenyl)-tropane, reference compound]
[4]; [^3 H]GBR
  Ki: 27 ± 2 nM
[4]
  Selectivity 5-HT/DA, Ki(5-HT):Ki(DA): 1.11
[5]
  Ki: 1.08 ± 0.6 nM
[6]
  time at which a specific image of the central grey nuclei starts to be produced: > 20 h
[7]
  Ki: 2.53 ± 0.02 nM
[8]
  Ki: 30 ± 2 nM
[9]
  Ki: 80 ± 28 nM
[10]; 2 hours
  non-specific fixation in the striatum determined after saturation with GBR 12909: ~70%
[10]
  fixation in the striatum prevented/inhibited by preinjection of GBR 12909: 31%
[11]; frontal cortex, rich in serotonin transporter sites, 2 hours, words
  fixation in the frontal cortex compared with the compound of the invention: much higher than that of the compound of the invention
[11]; frontal cortex, paroxetine 5 mg/kg i.v. 30 min before, 2 hours
  inhibition of fixation in the frontal cortex through a preinjection of paroxetine: 55%
[11]; words
  specificity for the dopamine transporter compared with the serotonin transporter in vivo: binds to both these transporters

## COC(=O)[C@H]1[C@@H](c2ccc(C)cc2)C[C@@H]2CC[C@H]1N2C/C=C/[125I] [Example 1, 2β-carbomethoxy-3β-(p-methylphenyl)-8-(3-[^125 I]iodoprop-2E-enyl)nortropane]
[4]; Ki(5-HT)/Ki(DA) of PE21 vs Kd(5-HT)/Kd(DA) of IPT
  specificity relative to IPT: 5 times
[4]; [^3 H]GBR
  Ki ratio DA (PE21)/DA (β-CIT): 0.63
  Ki: 17 ± 7 nM
[4]
  Selectivity 5-HT/DA, Ki(5-HT):Ki(DA): 29.4
[4]; from Ki ratios to β-CIT
  better affinity for dopamine transporter relative to iodoaltropane: 10 times
[12]; Kd of PE21 vs Kd of IPT (document 11)
  affinity relative to IPT: 2.5 times
[12]; [^125 I]PE21
  Kd: 0.09 ± 0.01 nM
[13]; [18]
  tissue uptake at 0.5 h: 0.1 %ID/g
  tissue uptake at 1 h: 0.055 %ID/g
  tissue uptake at 2 h: 0.038 %ID/g
  tissue uptake at 4 h: 0.021 %ID/g
[13]; [19]
  tissue uptake at 0.5 h: 0.124 %ID/g
  tissue uptake at 1 h: 0.07 %ID/g
  tissue uptake at 2 h: 0.039 %ID/g
  tissue uptake at 4 h: 0.018 %ID/g
[13]; [20]
  tissue uptake at 0.5 h: 1.06 %ID/g
  tissue uptake at 1 h: 0.537 %ID/g
  tissue uptake at 2 h: 0.272 %ID/g
  tissue uptake at 4 h: 0.074 %ID/g
[13]; words
  accumulation in the striatum: accumulates in preferential manner in the striatum
[14]; 6-OHDA lesion side
  striatum/frontal cortex ratio, lesion side: 0.86±0.10
[14]; intact side
  striatum/frontal cortex ratio, intact side: 7.20±0.91
[15]
  binding at the central grey nuclei: binds itself in specific manner at the central grey nuclei
[8]
  Ki: 500 ± 80 nM
[9]; [^3 H]nisoxetine, read-out: Affinity: Ki (nM) Nor-adrenaline
  Ki: > 100 nM
[10]; 2 hours
  non-specific fixation in the striatum determined after saturation with GBR 12909: approximately 25%
[10]; 2 hours, words
  specificity for the dopamine transporter in the striatum at early times: very strong specificity for the dopamine transporter in the striatum
[10]
  fixation in the striatum prevented/inhibited by preinjection of GBR 12909: 74%
[11]; words
  specificity for the dopamine transporter compared with the serotonin transporter in vivo: very strong specificity for the dopamine transporter compared with the serotonin transporter

## C(=Cc1ccccc1)CN1CCN(CCOC(c2ccccc2)c2ccccc2)CC1 [GBR 12783]
[16]
  Kd: 1.6 nM

## COC(=O)[C@H]1[C@@H](c2ccc(F)cc2)C[C@@H]2CC[C@H]1N2C/C=C/I [Iodoaltropane]
[5]
  Ki: 6.62 ± 0.78 nM
[7]
  Ki: 182 ± 41.8 nM
[17]
  Ki ratio DA (iodoaltropane)/DA (β-CIT): 6
